Test results: the kinase profiling compilation of Christmann-Franck et al. (2016)
One block for each compound: values may come before it.

What was measured:
Test in all cases: radiometric filter-binding kinase assay
MAP3K5 (human) = MAP3K5 (human) (UniProt Q99683)
PKN2 (human) = PKN2 (human) (UniProt Q16513)
SRC (human) = SRC (human) (UniProt P12931)
HIPK3 (human) = HIPK3 (human) (UniProt Q9H422)
LCK (mouse) = conditions: accession and sequence are those of the human protein
EPHA4 (human) = EPHA4 (human) (UniProt P54764)
Sequence of EPHA4 (human) (P54764 whole entry, looked up): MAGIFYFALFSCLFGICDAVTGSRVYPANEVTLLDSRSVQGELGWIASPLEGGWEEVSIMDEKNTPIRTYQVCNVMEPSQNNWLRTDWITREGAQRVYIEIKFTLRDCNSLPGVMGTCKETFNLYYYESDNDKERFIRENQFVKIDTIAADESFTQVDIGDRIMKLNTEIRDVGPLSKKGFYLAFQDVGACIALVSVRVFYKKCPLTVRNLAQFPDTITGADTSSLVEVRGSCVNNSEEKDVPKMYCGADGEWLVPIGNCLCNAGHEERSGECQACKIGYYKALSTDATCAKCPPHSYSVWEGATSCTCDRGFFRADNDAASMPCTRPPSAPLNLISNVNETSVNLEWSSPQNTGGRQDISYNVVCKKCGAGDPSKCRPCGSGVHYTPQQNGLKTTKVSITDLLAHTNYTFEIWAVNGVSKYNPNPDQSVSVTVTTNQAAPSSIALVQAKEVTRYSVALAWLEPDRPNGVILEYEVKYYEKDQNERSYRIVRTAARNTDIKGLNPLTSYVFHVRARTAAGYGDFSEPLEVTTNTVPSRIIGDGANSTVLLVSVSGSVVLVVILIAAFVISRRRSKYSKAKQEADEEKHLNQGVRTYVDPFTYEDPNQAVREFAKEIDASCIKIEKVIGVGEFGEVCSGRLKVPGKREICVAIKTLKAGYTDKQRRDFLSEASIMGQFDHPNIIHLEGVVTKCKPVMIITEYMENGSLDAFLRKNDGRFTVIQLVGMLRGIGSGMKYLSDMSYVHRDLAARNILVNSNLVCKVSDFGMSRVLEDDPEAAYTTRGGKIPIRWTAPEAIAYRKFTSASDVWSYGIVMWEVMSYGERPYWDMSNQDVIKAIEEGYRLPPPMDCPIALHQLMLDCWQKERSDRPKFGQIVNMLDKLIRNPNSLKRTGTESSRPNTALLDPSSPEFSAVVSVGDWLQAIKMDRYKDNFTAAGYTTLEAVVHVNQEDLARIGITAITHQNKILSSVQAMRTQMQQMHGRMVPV

CSK (human) = CSK (human) (UniProt P41240)
MAP3K9 (human) = MAP3K9 (human) (UniProt P80192)
ROCK2 (rat) = conditions: accession and sequence are those of the human protein
CAMKK2 (human) = CAMKK2 (human) (UniProt Q96RR4)
PRKAA1 or PRKAA2 (rat) = conditions: accession and sequence are those of the human protein
MAPK13 (human) = MAPK13 (human) (UniProt O15264)
PAK6 (human) = PAK6 (human) (UniProt Q9NQU5)
Sequence of PAK6 (human) (Q9NQU5 whole entry, looked up): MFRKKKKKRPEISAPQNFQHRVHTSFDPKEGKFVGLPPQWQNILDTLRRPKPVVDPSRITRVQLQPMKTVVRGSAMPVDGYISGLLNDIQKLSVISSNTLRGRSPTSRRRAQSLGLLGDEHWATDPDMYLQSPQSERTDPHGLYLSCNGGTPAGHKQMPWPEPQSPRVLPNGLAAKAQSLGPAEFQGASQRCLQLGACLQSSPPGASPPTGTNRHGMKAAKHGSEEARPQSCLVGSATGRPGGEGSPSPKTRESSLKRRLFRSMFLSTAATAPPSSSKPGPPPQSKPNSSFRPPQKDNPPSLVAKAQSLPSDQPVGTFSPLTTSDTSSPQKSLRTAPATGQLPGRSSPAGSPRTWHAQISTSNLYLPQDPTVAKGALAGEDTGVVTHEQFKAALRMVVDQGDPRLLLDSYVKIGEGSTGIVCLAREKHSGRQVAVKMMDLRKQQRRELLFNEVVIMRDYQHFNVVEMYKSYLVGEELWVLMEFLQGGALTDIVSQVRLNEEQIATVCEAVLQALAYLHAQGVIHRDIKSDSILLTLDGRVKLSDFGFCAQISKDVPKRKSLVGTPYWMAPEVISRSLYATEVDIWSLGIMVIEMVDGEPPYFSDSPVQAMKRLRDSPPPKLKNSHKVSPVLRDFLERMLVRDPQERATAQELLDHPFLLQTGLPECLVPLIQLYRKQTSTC

MARK4 (human) = MARK4 (human) (UniProt Q96L34)
Sequence of MARK4 (human) (Q96L34 whole entry, looked up): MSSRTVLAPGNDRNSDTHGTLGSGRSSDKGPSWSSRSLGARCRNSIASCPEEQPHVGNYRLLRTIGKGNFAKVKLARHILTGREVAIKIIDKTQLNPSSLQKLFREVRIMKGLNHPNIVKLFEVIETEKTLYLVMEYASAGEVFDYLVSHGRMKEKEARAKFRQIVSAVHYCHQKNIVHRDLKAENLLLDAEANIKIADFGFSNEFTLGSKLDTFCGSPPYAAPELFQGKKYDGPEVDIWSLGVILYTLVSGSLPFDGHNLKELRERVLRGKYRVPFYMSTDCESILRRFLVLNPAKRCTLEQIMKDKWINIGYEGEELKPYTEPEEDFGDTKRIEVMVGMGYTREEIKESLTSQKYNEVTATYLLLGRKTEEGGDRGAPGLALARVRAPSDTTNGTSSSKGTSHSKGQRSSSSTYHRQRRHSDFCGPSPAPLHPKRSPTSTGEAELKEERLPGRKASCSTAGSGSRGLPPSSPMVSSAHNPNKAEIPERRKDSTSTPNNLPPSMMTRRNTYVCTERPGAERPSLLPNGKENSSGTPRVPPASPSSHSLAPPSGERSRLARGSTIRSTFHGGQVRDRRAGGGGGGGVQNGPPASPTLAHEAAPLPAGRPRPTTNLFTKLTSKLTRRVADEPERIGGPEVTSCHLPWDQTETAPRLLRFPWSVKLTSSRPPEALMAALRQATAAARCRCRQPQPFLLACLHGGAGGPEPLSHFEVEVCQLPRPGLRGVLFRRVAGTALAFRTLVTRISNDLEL

PRKCZ (human) = PRKCZ (human) (UniProt Q05513)
Sequence of PRKCZ (human) (Q05513 whole entry, looked up): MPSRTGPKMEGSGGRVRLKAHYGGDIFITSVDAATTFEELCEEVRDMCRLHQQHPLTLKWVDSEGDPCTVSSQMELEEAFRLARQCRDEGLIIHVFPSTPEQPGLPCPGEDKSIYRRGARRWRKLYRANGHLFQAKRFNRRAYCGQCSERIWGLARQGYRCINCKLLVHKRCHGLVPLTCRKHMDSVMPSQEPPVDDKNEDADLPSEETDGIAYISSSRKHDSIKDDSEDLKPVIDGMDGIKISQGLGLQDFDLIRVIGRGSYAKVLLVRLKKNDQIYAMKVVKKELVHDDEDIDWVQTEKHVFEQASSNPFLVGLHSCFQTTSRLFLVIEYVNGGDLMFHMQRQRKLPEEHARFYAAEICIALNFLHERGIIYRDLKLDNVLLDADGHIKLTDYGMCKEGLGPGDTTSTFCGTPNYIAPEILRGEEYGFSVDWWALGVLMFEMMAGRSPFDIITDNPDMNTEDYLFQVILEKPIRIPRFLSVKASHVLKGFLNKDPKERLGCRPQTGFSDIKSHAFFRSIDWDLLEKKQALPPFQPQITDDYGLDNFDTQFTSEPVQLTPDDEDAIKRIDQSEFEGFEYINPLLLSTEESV

MAPK1 (human) = MAPK1 (human) (UniProt P28482)
BRSK2 (human) = BRSK2 (human) (UniProt Q8IWQ3)
DAPK1 (human) = DAPK1 (human) (UniProt P53355)
PLK1 (human) = PLK1 (human) (UniProt P53350)
Sequence of PLK1 (human) (P53350 whole entry, looked up): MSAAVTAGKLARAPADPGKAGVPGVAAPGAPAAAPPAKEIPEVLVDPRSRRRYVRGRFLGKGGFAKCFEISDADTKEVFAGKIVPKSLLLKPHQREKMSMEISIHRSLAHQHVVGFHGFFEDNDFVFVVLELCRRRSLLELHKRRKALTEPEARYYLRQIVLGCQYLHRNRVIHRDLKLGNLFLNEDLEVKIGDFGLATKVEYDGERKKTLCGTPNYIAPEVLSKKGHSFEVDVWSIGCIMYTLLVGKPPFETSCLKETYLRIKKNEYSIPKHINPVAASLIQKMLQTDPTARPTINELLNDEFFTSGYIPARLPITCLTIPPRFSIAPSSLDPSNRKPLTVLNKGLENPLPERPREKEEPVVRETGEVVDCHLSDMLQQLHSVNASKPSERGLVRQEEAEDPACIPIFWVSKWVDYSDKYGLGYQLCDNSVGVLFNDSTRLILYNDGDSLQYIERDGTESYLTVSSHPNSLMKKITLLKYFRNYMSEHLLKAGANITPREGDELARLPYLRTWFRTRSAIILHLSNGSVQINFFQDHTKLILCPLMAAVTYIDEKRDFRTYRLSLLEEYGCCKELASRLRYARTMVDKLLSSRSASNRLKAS

YES1 (human) = YES1 (human) (UniProt P07947)
MAPK11 (human) = MAPK11 (human) (UniProt Q15759)
MAP3K7 TAB1 (human) = MAP3K7 TAB1 (human) (UniProt Q15750+O43318)
HIPK1 (human) = HIPK1 (human) (UniProt Q86Z02)
IGF1R (human) = IGF1R (human) (UniProt P08069)
EPHB4 (human) = EPHB4 (human) (UniProt P54760)
PAK7 (human) = PAK7 (human) (UniProt Q9P286)
GSK3B (human) = GSK3B (human) (UniProt P49841)
Sequence of GSK3B (human) (P49841 whole entry, looked up): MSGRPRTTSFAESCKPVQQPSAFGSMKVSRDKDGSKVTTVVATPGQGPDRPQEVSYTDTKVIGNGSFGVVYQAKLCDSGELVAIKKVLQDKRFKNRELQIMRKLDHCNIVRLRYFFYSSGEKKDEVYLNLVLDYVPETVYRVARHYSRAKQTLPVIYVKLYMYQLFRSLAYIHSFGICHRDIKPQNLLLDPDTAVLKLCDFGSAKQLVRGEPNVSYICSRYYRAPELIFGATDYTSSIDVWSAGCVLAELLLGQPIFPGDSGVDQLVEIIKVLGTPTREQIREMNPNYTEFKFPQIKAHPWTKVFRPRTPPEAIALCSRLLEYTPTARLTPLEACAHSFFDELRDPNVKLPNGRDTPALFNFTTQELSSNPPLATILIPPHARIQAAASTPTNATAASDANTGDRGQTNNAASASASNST

RPS6KA5 KD1 KD2 (human) = RPS6KA5 KD1 KD2 (human) (UniProt O75582)
EPHB1 (human) = EPHB1 (human) (UniProt P54762)
SYK (human) = SYK (human) (UniProt P43405)
HIPK2 (human) = HIPK2 (human) (UniProt Q9H2X6)
INSR (human) = INSR (human) (UniProt P06213)
MAP3K1 (human) = MAP3K1 (human) (UniProt Q13233)
EPHB3 (human) = EPHB3 (human) (UniProt P54753)
[1] = tested on: AKT2 (human), P31751 [S474D]
Sequence of AKT2 (human), P31751 [S474D] (P31751 whole entry S474D, looked up): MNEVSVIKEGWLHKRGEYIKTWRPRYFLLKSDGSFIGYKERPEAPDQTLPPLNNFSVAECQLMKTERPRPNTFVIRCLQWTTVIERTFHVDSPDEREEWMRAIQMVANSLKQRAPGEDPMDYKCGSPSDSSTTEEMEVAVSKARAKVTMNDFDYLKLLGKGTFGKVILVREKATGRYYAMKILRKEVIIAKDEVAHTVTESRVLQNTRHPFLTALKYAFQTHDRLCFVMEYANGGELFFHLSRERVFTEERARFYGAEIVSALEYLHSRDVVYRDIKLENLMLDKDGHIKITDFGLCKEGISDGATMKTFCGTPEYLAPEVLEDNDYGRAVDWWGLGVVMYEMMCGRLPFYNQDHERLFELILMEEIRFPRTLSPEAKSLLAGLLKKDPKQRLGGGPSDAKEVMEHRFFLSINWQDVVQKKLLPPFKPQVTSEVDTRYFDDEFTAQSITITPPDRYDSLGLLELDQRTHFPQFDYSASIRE

CLK2 (human) = CLK2 (human) (UniProt P49760)
Sequence of CLK2 (human) (P49760 whole entry, looked up): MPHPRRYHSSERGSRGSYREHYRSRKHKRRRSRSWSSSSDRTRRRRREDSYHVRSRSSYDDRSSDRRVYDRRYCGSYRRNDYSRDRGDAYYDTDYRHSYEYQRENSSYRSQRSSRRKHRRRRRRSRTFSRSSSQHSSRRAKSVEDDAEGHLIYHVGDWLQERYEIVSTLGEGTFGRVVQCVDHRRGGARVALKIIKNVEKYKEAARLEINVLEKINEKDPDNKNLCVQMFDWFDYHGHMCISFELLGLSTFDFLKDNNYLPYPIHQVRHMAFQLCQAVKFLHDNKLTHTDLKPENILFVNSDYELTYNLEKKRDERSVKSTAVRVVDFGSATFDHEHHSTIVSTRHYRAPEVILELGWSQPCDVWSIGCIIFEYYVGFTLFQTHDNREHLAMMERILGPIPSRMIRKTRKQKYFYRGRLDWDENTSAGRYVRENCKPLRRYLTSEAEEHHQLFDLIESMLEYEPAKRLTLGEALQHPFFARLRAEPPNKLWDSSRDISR

residual activity (MAP3K5 (human); compound 100.0 µM): 151%
residual activity (PKN2 (human); compound 100.0 µM): 126%
residual activity (SRC (human); compound 100.0 µM): 40%
residual activity (HIPK3 (human); compound 100.0 µM): 74%
residual activity (LCK (mouse); compound 100.0 µM): 112%
residual activity (EPHA4 (human); compound 100.0 µM): 92%
residual activity (CSK (human); compound 100.0 µM): 132%
residual activity (MAP3K9 (human); compound 100.0 µM): 58%
residual activity (ROCK2 (rat); compound 100.0 µM): 105%
residual activity (CAMKK2 (human); compound 100.0 µM): 99%
residual activity (PRKAA1 or PRKAA2 (rat); compound 100.0 µM): 71%
residual activity (MAPK13 (human); compound 100.0 µM): 109%
residual activity (PAK6 (human); compound 100.0 µM): 96%
residual activity (MARK4 (human); compound 100.0 µM): 81%
residual activity (PRKCZ (human); compound 100.0 µM): 97%
residual activity (MAPK1 (human); compound 100.0 µM): 134%
residual activity (BRSK2 (human); compound 100.0 µM): 46%
residual activity (DAPK1 (human); compound 100.0 µM): 82%
residual activity (PLK1 (human); compound 100.0 µM): 79%
residual activity (YES1 (human); compound 100.0 µM): 52%
residual activity (MAPK11 (human); compound 100.0 µM): 58%
residual activity (MAP3K7 TAB1 (human); compound 100.0 µM): 31%
residual activity (HIPK1 (human); compound 100.0 µM): 94%
residual activity (IGF1R (human); compound 100.0 µM): 109%
residual activity (EPHB4 (human); compound 100.0 µM): 123%
residual activity (PAK7 (human); compound 100.0 µM): 87%
residual activity (GSK3B (human); compound 100.0 µM): 31%
residual activity (RPS6KA5 KD1 KD2 (human); compound 100.0 µM): 84%
residual activity (EPHB1 (human); compound 100.0 µM): 97%
residual activity (SYK (human); compound 100.0 µM): 103%
residual activity (HIPK2 (human); compound 100.0 µM): 42%
residual activity (INSR (human); compound 100.0 µM): 141%
residual activity (MAP3K1 (human); compound 100.0 µM): 88%
residual activity (EPHB3 (human); compound 100.0 µM): 48%
residual activity ([1]; compound 100.0 µM): 37%
SMILES: Cc1cc(N=Nc2cc(S(=O)(=O)O)c(C)cc2C)c(N)cc1O

residual activity (MAP3K5 (human); compound 10.0 µM): 101%
residual activity (PKN2 (human); compound 10.0 µM): 69%
residual activity (SRC (human); compound 10.0 µM): 111%
residual activity (HIPK3 (human); compound 10.0 µM): 101%
residual activity (LCK (mouse); compound 10.0 µM): 93%
residual activity (EPHA4 (human); compound 10.0 µM): 90%
residual activity (CSK (human); compound 10.0 µM): 90%
residual activity (MAP3K9 (human); compound 10.0 µM): 108%
residual activity (ROCK2 (rat); compound 10.0 µM): 95%
residual activity (CAMKK2 (human); compound 10.0 µM): 83%
residual activity (PRKAA1 or PRKAA2 (rat); compound 10.0 µM): 92%
residual activity (MAPK13 (human); compound 10.0 µM): 85%
residual activity (PAK6 (human); compound 10.0 µM): 109%
residual activity (MARK4 (human); compound 10.0 µM): 85%
residual activity (PRKCZ (human); compound 10.0 µM): 94%
residual activity (MAPK1 (human); compound 10.0 µM): 90%
residual activity (BRSK2 (human); compound 10.0 µM): 108%
residual activity (PLK1 (human); compound 10.0 µM): 99%
residual activity (CLK2 (human); compound 10.0 µM): 95%
residual activity (YES1 (human); compound 10.0 µM): 105%
residual activity (MAPK11 (human); compound 10.0 µM): 101%
residual activity (MAP3K7 TAB1 (human); compound 10.0 µM): 98%
residual activity (HIPK1 (human); compound 10.0 µM): 94%
residual activity (IGF1R (human); compound 10.0 µM): 93%
residual activity (PAK7 (human); compound 10.0 µM): 92%
residual activity (GSK3B (human); compound 10.0 µM): 85%
residual activity (EPHB1 (human); compound 10.0 µM): 117%
residual activity (SYK (human); compound 10.0 µM): 94%
residual activity (HIPK2 (human); compound 10.0 µM): 97%
residual activity (INSR (human); compound 10.0 µM): 93%
residual activity (MAP3K1 (human); compound 10.0 µM): 85%
residual activity (EPHB3 (human); compound 10.0 µM): 86%
residual activity ([1]; compound 10.0 µM): 84%
SMILES: O=S(=O)(c1ccc(F)c2nonc12)N1CCN(c2ncc(C(F)(F)F)cc2Cl)CC1

residual activity (PKN2 (human); compound 0.1 µM): 105%
residual activity (PKN2 (human); compound 1.0 µM): 91%
residual activity (SRC (human); compound 0.1 µM): 102%
residual activity (SRC (human); compound 1.0 µM): 75%
residual activity (HIPK3 (human); compound 0.1 µM): 105%
residual activity (HIPK3 (human); compound 1.0 µM): 99%
residual activity (LCK (mouse); compound 0.1 µM): 105%
residual activity (LCK (mouse); compound 1.0 µM): 62%
residual activity (EPHA4 (human); compound 0.1 µM): 108%
residual activity (EPHA4 (human); compound 1.0 µM): 98%
residual activity (CSK (human); compound 0.1 µM): 97%
residual activity (CSK (human); compound 1.0 µM): 93%
residual activity (MAP3K9 (human); compound 0.1 µM): 96%
residual activity (MAP3K9 (human); compound 1.0 µM): 86%
residual activity (ROCK2 (rat); compound 0.1 µM): 96%
residual activity (ROCK2 (rat); compound 1.0 µM): 104%
residual activity (CAMKK2 (human); compound 0.1 µM): 100%
residual activity (CAMKK2 (human); compound 1.0 µM): 104%
residual activity (PRKAA1 or PRKAA2 (rat); compound 0.1 µM): 99%
residual activity (PRKAA1 or PRKAA2 (rat); compound 1.0 µM): 82%
residual activity (MAPK13 (human); compound 1.0 µM): 94%
residual activity (PAK6 (human); compound 0.1 µM): 111%
residual activity (PAK6 (human); compound 1.0 µM): 113%
residual activity (MARK4 (human); compound 0.1 µM): 98%
residual activity (MARK4 (human); compound 1.0 µM): 87%
residual activity (PRKCZ (human); compound 0.1 µM): 98%
residual activity (PRKCZ (human); compound 1.0 µM): 100%
residual activity (MAPK1 (human); compound 0.1 µM): 104%
residual activity (MAPK1 (human); compound 1.0 µM): 94%
residual activity (BRSK2 (human); compound 0.1 µM): 117%
residual activity (BRSK2 (human); compound 1.0 µM): 92%
residual activity (DAPK1 (human); compound 0.1 µM): 94%
residual activity (DAPK1 (human); compound 1.0 µM): 90%
residual activity (PLK1 (human); compound 0.1 µM): 99%
residual activity (PLK1 (human); compound 1.0 µM): 106%
residual activity (CLK2 (human); compound 0.1 µM): 106%
residual activity (CLK2 (human); compound 1.0 µM): 98%
residual activity (YES1 (human); compound 0.1 µM): 106%
residual activity (YES1 (human); compound 1.0 µM): 70%
residual activity (MAPK11 (human); compound 0.1 µM): 89%
residual activity (MAPK11 (human); compound 1.0 µM): 61%
residual activity (MAP3K7 TAB1 (human); compound 0.1 µM): 99%
residual activity (MAP3K7 TAB1 (human); compound 1.0 µM): 81%
residual activity (HIPK1 (human); compound 0.1 µM): 96%
residual activity (HIPK1 (human); compound 1.0 µM): 98%
residual activity (IGF1R (human); compound 0.1 µM): 97%
residual activity (IGF1R (human); compound 1.0 µM): 103%
residual activity (EPHB4 (human); compound 0.1 µM): 93%
residual activity (EPHB4 (human); compound 1.0 µM): 93%
residual activity (PAK7 (human); compound 0.1 µM): 107%
residual activity (PAK7 (human); compound 1.0 µM): 102%
residual activity (GSK3B (human); compound 0.1 µM): 99%
residual activity (GSK3B (human); compound 1.0 µM): 79%
residual activity (RPS6KA5 KD1 KD2 (human); compound 0.1 µM): 110%
residual activity (RPS6KA5 KD1 KD2 (human); compound 1.0 µM): 101%
residual activity (SYK (human); compound 0.1 µM): 109%
residual activity (SYK (human); compound 1.0 µM): 106%
residual activity (HIPK2 (human); compound 0.1 µM): 104%
residual activity (HIPK2 (human); compound 1.0 µM): 95%
residual activity (INSR (human); compound 0.1 µM): 108%
residual activity (INSR (human); compound 1.0 µM): 94%
residual activity (MAP3K1 (human); compound 0.1 µM): 130%
residual activity (MAP3K1 (human); compound 1.0 µM): 111%
residual activity (EPHB3 (human); compound 0.1 µM): 112%
residual activity (EPHB3 (human); compound 1.0 µM): 104%
residual activity ([1]; compound 0.1 µM): 108%
residual activity ([1]; compound 1.0 µM): 96%
SMILES: Cc1cccc(-c2nn(C(=S)Nc3ccccc3)cc2-c2ccnc3ccccc23)n1
